Test results published in ChEMBL document CHEMBL1201862, “PubChem BioAssay data set” (2004).
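Cells were grown in 96-well plates and exposed to each compound for 48 hours at five concentrations; endpoints were interpolated linearly between bracketing concentrations, or set to the highest concentration if not reached. GI50 = concentration required for 50% inhibition of growth.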 Calls of active or inactive are those of the source. Cut-off read from the data, not from the text of the source: active = GI50 up to about 1.1 µM and inactive = higher.

How the values were obtained:
Assay in all cases: inhibition of tumour cell growth, NCI panel, 48 h
786-0 = system: 786-0
ACHN = system: ACHN
CAKI-1 = system: CAKI-1
COLO 205 = system: COLO 205
LOX IMVI = system: LOX IMVI
M14 = system: M14
M19-MEL = system: M19-MEL
NCI-H23 = system: NCI-H23
NCI-H522 = system: NCI-H522
RXF 393 = system: RXF 393
SF-539 = system: SF-539
SK-MEL-2 = system: SK-MEL-2
SN12C = system: SN12C
TK-10 = system: TK-10
UO-31 = system: UO-31
RPMI-8226 = system: RPMI-8226

Row | Structure (SMILES) | GI50 (786-0) | GI50 (ACHN) | GI50 (CAKI-1) | GI50 (COLO 205) | GI50 (LOX IMVI) | GI50 (M14) | GI50 (M19-MEL) | GI50 (NCI-H23) | GI50 (NCI-H522) | GI50 (RXF 393) | GI50 (SF-539) | GI50 (SK-MEL-2) | GI50 (SN12C) | GI50 (TK-10) | GI50 (UO-31) | GI50 (RPMI-8226)
1 | CC1=CC(=O)NCCN1C | > 100 µM (inactive) | > 100 µM (inactive) | > 100 µM (inactive) | > 100 µM (inactive) | 62.7 µM (inactive) | > 100 µM (inactive) | > 100 µM (inactive) | > 100 µM (inactive) | > 100 µM (inactive) | > 100 µM (inactive) | > 100 µM (inactive) | > 100 µM (inactive) | > 100 µM (inactive) | > 100 µM (inactive) | > 100 µM (inactive) | –
2 | c1ccc(NC[Si]23OCCN(CCO2)CCO3)cc1 | > 100 µM (inactive) | > 100 µM (inactive) | > 100 µM (inactive) | > 100 µM (inactive) | – | – | > 100 µM (inactive) | > 100 µM (inactive) | > 100 µM (inactive) | > 100 µM (inactive) | > 100 µM (inactive) | > 100 µM (inactive) | > 100 µM (inactive) | > 100 µM (inactive) | > 100 µM (inactive) | > 100 µM (inactive)
3 | CCOc1ccccc1NC(=O)C(=O)CC(=O)C1=C(C)Nc2ccccc2S1 | > 100 µM (inactive) | > 100 µM (inactive) | > 100 µM (inactive) | > 100 µM (inactive) | > 100 µM (inactive) | > 100 µM (inactive) | > 100 µM (inactive) | > 100 µM (inactive) | > 100 µM (inactive) | > 100 µM (inactive) | > 100 µM (inactive) | > 100 µM (inactive) | > 100 µM (inactive) | > 100 µM (inactive) | > 93.3 µM (inactive) | > 100 µM (inactive)
4 | C=C(Br)N(CC)CC | > 100 µM (inactive) | > 100 µM (inactive) | > 100 µM (inactive) | > 100 µM (inactive) | > 100 µM (inactive) | > 100 µM (inactive) | > 100 µM (inactive) | > 100 µM (inactive) | > 100 µM (inactive) | > 100 µM (inactive) | > 100 µM (inactive) | > 100 µM (inactive) | > 100 µM (inactive) | > 100 µM (inactive) | > 100 µM (inactive) | > 100 µM (inactive)
5 | C/C(CC(=O)Nc1ccccc1[N+](=O)[O-])=N\NC(N)=O | > 100 µM (inactive) | > 100 µM (inactive) | – | > 100 µM (inactive) | > 100 µM (inactive) | > 100 µM (inactive) | > 100 µM (inactive) | > 100 µM (inactive) | > 100 µM (inactive) | > 100 µM (inactive) | > 100 µM (inactive) | > 100 µM (inactive) | – | > 100 µM (inactive) | > 100 µM (inactive) | > 100 µM (inactive)
6 | CCOC(=O)c1cc(-c2ccc(-c3cc(C(=O)OCC)c(C#N)c(N)c3C#N)cc2)c(C#N)c(N)c1C#N | > 100 µM (inactive) | > 100 µM (inactive) | > 100 µM (inactive) | > 100 µM (inactive) | > 100 µM (inactive) | > 100 µM (inactive) | > 100 µM (inactive) | > 100 µM (inactive) | > 100 µM (inactive) | > 100 µM (inactive) | > 100 µM (inactive) | > 100 µM (inactive) | > 100 µM (inactive) | > 100 µM (inactive) | > 100 µM (inactive) | > 100 µM (inactive)
7 | CC(N)CC(=O)O (centres undefined) | > 5000 µM (inactive) | > 5000 µM (inactive) | – | > 5000 µM (inactive) | – | > 5000 µM (inactive) | > 5000 µM (inactive) | > 5000 µM (inactive) | > 5000 µM (inactive) | > 5000 µM (inactive) | > 5000 µM (inactive) | > 5000 µM (inactive) | > 5000 µM (inactive) | > 5000 µM (inactive) | > 5000 µM (inactive) | > 5000 µM (inactive)
8 | CC(C)(Oc1ccc2c(=O)cc(-c3ccc(Cl)cc3)oc2c1)C(=O)Nc1c(Cl)cccc1Cl | > 100 µM (inactive) | – | > 100 µM (inactive) | – | > 100 µM (inactive) | > 100 µM (inactive) | > 100 µM (inactive) | > 100 µM (inactive) | > 100 µM (inactive) | – | > 100 µM (inactive) | > 100 µM (inactive) | – | > 100 µM (inactive) | 25 µM (inactive) | > 100 µM (inactive)
9 | CN1CCN=C1c1nnn(-c2ccc([N+](=O)[O-])cc2)c1-c1ccccc1 | > 100 µM (inactive) | > 100 µM (inactive) | > 100 µM (inactive) | > 100 µM (inactive) | 94.6 µM (inactive) | > 100 µM (inactive) | > 100 µM (inactive) | > 100 µM (inactive) | > 100 µM (inactive) | > 100 µM (inactive) | > 100 µM (inactive) | > 100 µM (inactive) | > 100 µM (inactive) | > 100 µM (inactive) | 75.5 µM (inactive) | –
10 | CCC12CCCN(Cc3ccccc3)C1c1c(n(C)c3ccccc13)CC2 (centres undefined) | > 253 µM (inactive) | 246 µM (inactive) | > 253 µM (inactive) | 164 µM (inactive) | 236 µM (inactive) | – | 170 µM (inactive) | 111 µM (inactive) | 61.1 µM (inactive) | 97.3 µM (inactive) | > 253 µM (inactive) | > 253 µM (inactive) | 149 µM (inactive) | > 253 µM (inactive) | – | 92.7 µM (inactive)
11 | COc1cc2cnc3c4cc(OCc5ccccc5)ccc4ccc3c2cc1OC | 12.1 µM (inactive) | 46.7 µM (inactive) | 26.7 µM (inactive) | 18.5 µM (inactive) | 29.6 µM (inactive) | 19.8 µM (inactive) | 27.4 µM (inactive) | 25.2 µM (inactive) | 17.3 µM (inactive) | 12 µM (inactive) | 34 µM (inactive) | 18.8 µM (inactive) | 73.3 µM (inactive) | 16.1 µM (inactive) | 27.2 µM (inactive) | 2.96 µM (inactive)
12 | CC(=O)N1C/C(=C\c2ccccc2)C(=O)/C(=C/c2ccccc2)C1 | 15.6 µM (inactive) | 16.9 µM (inactive) | 17.6 µM (inactive) | 17.6 µM (inactive) | 3.43 µM (inactive) | 6.98 µM (inactive) | 3.34 µM (inactive) | 19 µM (inactive) | 12.3 µM (inactive) | 16.2 µM (inactive) | 19.3 µM (inactive) | 24.9 µM (inactive) | 14.4 µM (inactive) | 18.2 µM (inactive) | 19.7 µM (inactive) | 0.415 µM (active)
13 | CO[C@H](C(=O)O[C@H]1C(=O)N2CCC3CCC1C32C)c1ccccc1 (some centres undefined) | > 100 µM (inactive) | > 100 µM (inactive) | > 100 µM (inactive) | > 100 µM (inactive) | > 100 µM (inactive) | > 100 µM (inactive) | > 100 µM (inactive) | > 100 µM (inactive) | > 100 µM (inactive) | > 100 µM (inactive) | > 100 µM (inactive) | > 100 µM (inactive) | > 100 µM (inactive) | – | > 100 µM (inactive) | > 100 µM (inactive)
14 | CCOC(=O)c1c2ccc(/C=C/c3ccccn3)ccc-2c(C(=O)OCC)c1N | > 100 µM (inactive) | 73.5 µM (inactive) | > 100 µM (inactive) | > 100 µM (inactive) | > 100 µM (inactive) | > 100 µM (inactive) | > 100 µM (inactive) | > 100 µM (inactive) | 91 µM (inactive) | > 100 µM (inactive) | 88.9 µM (inactive) | > 100 µM (inactive) | – | > 100 µM (inactive) | > 100 µM (inactive) | –
15 | COc1ccc(C(=O)O)c(Cc2cccc3ccccc23)c1 | > 100 µM (inactive) | > 100 µM (inactive) | 73.5 µM (inactive) | > 100 µM (inactive) | > 100 µM (inactive) | > 100 µM (inactive) | > 100 µM (inactive) | > 100 µM (inactive) | > 100 µM (inactive) | > 100 µM (inactive) | – | > 100 µM (inactive) | > 100 µM (inactive) | > 100 µM (inactive) | > 100 µM (inactive) | –
16 | NC(=S)N/N=C/C(O[C@@H](/C=N/NC(N)=S)CO)n1cnc2c(N)ncnc21 (some centres undefined) | > 58.2 µM (inactive) | > 100 µM (inactive) | > 100 µM (inactive) | > 49.8 µM (inactive) | > 100 µM (inactive) | > 100 µM (inactive) | 97.1 µM (inactive) | > 100 µM (inactive) | > 47.9 µM (inactive) | > 100 µM (inactive) | > 100 µM (inactive) | – | > 100 µM (inactive) | > 100 µM (inactive) | > 100 µM (inactive) | > 45 µM (inactive)
17 | CC1/C(=N\O)CC(c2ccccc2)N(C)C1c1ccccc1 (centres undefined) | > 100 µM (inactive) | > 100 µM (inactive) | > 100 µM (inactive) | > 100 µM (inactive) | > 100 µM (inactive) | > 100 µM (inactive) | > 100 µM (inactive) | > 100 µM (inactive) | > 100 µM (inactive) | > 100 µM (inactive) | > 100 µM (inactive) | > 100 µM (inactive) | > 100 µM (inactive) | > 100 µM (inactive) | > 100 µM (inactive) | –
18 | O=C(NC1C(=O)NNC1c1cccc([N+](=O)[O-])c1)c1ccccc1 (centres undefined) | > 100 µM (inactive) | > 100 µM (inactive) | – | > 100 µM (inactive) | > 100 µM (inactive) | > 100 µM (inactive) | > 100 µM (inactive) | > 100 µM (inactive) | – | > 100 µM (inactive) | – | > 100 µM (inactive) | > 100 µM (inactive) | > 100 µM (inactive) | > 100 µM (inactive) | > 100 µM (inactive)
